Test results: patent publication US11026916B2, “Treatment for non-alcoholic fatty liver diseases” (DSM IP ASSETS B.V., priority 2014, dated 2021)

Legend:
Assay type in all cases: cell-based, human
[1] = test system: TNF-alpha; experiment: TNF-alpha secretion by LPS-stimulated leukocytes (mononuclear cells), multiplex cytokine kit; conditions: for % reduction of TNF-alpha: pre-incubating cells prior to the stimulation with LPS, concentration not stated in the sentence (Table 1a)
Protocol: (§1) Leukocytes are obtained from healthy donors. Mononuclear cells (MNC) are purified by Ficoll-Isopaque gradient centrifugation. Cells (at 3-8×10^6 cells/mL) are cultured in phenol-red free RPMI 1640, supplemented with 0.25% FBS, 0.1 mM NEAA, 50 U/mL penicillin, 50 μg/mL streptomycin and 5×10^-5 M 2-mercaptoethanol. Cells are stimulated with LPS (100 ng/mL) and IFN-γ (20 U/mL) for 2-24 h. Multiparametric kits for determination of cytokines and chemokines are purchased from BIO-RAD Laboratories (Hercules, Calif.) and used in the LiquiChip Workstation IS 200 (Qiagen, Hilden, Germany). The data are evaluated with the LiquiChip Analyser software (Qiagen).
(§2) The algorithm developed by Chou and Tatalay is used to calculate synergistic effects (Chou, T-C. Et Tatalay, P. A simple Biol. Chem. 252, 6438-6442, 1977; Chou, T-C. Et Tatalay, P. Analysis of combined drug effects—A new look at a very old problem. Trends in Biological Sciences. November 1983, p 450-454, 1983). Interactions are quantified by the Combination Index (CI). Briefly, the % of inhibition of the concentration of each single substance alone or the mixture of both are determined. The affected fraction (fa) (values between 0 and 1) and unaffected fraction (fu) (1−fa), respectively, is calculated. For median-effect plots, log (fa/fu) is plotted against log (D), where D represents the concentration of each single compound alone or the mixture of both. Using CalcuSyn software (Biosoft, Ferguson, Mo.), which is based upon the method by Chou Et Tatalay, a CI is computed for every fraction affected: a CI<1 reflects synergistic inhibition of the respective inflammatory parameter; if CI=1 the substances have additive interactions; when CI>1 the interaction of substances reflects antagonism. It has also been observed that substances can have synergistic or antagonistic interactions at given concentrations or ratios, respectively (see e.g. Pappa et al. Quantitative combination effects between sulforaphane and 3,3′-[…] diindolylmethane on proliferation of human colon cancer cells in vitro. Carcinogenesis 28, 1471-77, 2007).
(§3) Cells are stimulated with LPS, an pathogen-derived component that induces inflammatory response, which is reflected in the expression of inflammatory genes and the secretion of cytokines, interleukins and chemokines (Table 1). LPS induces a massive increase of the secretion of inflammatory mediators such as TNF-alpha. Concomitantly, inflammatory mediators are secreted. These parameters are modulated by pre-incubating cells with α-tocopherol or ω-3 PUFA prior to the stimulation with LPS. For instance, the pro-inflammatory cytokine […] is reduced by 29% and 64%, respectively (Table 1a). […] Thus, the substances reduces the extent of the inflammatory stress in cells that respond to inflammatory stimuli.

[2] = test system: CCL4/MIP-1beta; experiment: CCL4/MIP-1beta secretion by LPS-stimulated leukocytes (mononuclear cells), multiplex cytokine kit; conditions: for CCL4/MIP-1 b reduction (in words): pre-incubating cells prior to the stimulation with LPS
Protocol: as §1, §2, §3

[3] = test system: IL-1beta; experiment: IL-1beta secretion by LPS-stimulated leukocytes (mononuclear cells), multiplex cytokine kit; conditions: for IL-1beta reduction (in words): pre-incubating cells prior to the stimulation with LPS
Protocol: as §1, with “(Qiagen). […]” for “(Qiagen).”
as §3

| Compound | % reduction of TNF-alpha [1] | % inhibition (vs LPS) of TNF-alpha ([1]; single substance 10 μM + LPS) | TNF-alpha pg/mL ± SD ([1]; single substance 10 μM + LPS) | % inhibition (vs LPS) of TNF-alpha ([1]; single substance 50 μM + LPS) | TNF-alpha pg/mL ± SD ([1]; single substance 50 μM + LPS) | CCL4/MIP-1 b reduction (in words) [2] | % inhibition (vs LPS) of CCL4 ([2]; single substance 10 μM + LPS) | CCL4 pg/mL ± SD ([2]; single substance 10 μM + LPS) | % inhibition (vs LPS) of CCL4 ([2]; single substance 50 μM + LPS) | CCL4 pg/mL ± SD ([2]; single substance 50 μM + LPS) | IL-1beta reduction (in words) [3] | % inhibition (vs LPS) of IL-1beta ([3]; single substance 10 μM + LPS) | IL-1beta pg/mL ± SD ([3]; single substance 10 μM + LPS) | % inhibition (vs LPS) of IL-1beta ([3]; single substance 50 μM + LPS) | IL-1beta pg/mL ± SD ([3]; single substance 50 μM + LPS) | other results |
| --- | --- | --- | --- | --- | --- | --- | --- | --- | --- | --- | --- | --- | --- | --- | --- | --- |
| Cc1c(C)c2c(c(C)c1O)CC[C@@](C)(CCC[C@H](C)CCC[C@H](C)CCCC(C)C)O2 [AT, α-tocopherol] | 29% | −4% | 5505 ± 177 pg/mL | 29% | 3755 ± 21 pg/mL | significantly reduced | 7% | 91400 ± 5657 pg/mL | 15% | 83900 ± 3111 pg/mL | significantly reduced | −7% | 6770 ± 438 pg/mL | 9% | 5735 ± 134 pg/mL | % inhibition (vs LPS) of TNF-alpha ([1]; single substance 200 μM + LPS): 27%; TNF-alpha pg/mL ± SD ([1]; single substance 200 μM + LPS): 3870 ± 14 pg/mL; % inhibition (vs LPS) of CCL4 ([2]; single substance 200 μM + LPS): 11%; CCL4 pg/mL ± SD ([2]; single substance 200 μM + LPS): 87950 ± 3165 pg/mL; % inhibition (vs LPS) of IL-1beta ([3]; single substance 200 μM + LPS): 14%; IL-1beta pg/mL ± SD ([3]; single substance 200 μM + LPS): 5430 ± 113 pg/mL |
| CC/C=C\C/C=C\C/C=C\C/C=C\C/C=C\C/C=C\CCC(=O)O [DHA, (all-Z)-4,7,10,13,16,19-docosahexaenoic acid] | 64% | 60% | 3190 ± 14 pg/mL | 59% | 3105 ± 163 pg/mL | significantly reduced | 32% | 79995 ± 3465 pg/mL | 62% | 37600 ± 778 pg/mL | significantly reduced | 14% | 5405 ± 742 pg/mL | 77% | 1440 ± 71 pg/mL | % inhibition (vs LPS) of TNF-alpha ([1]; single substance 20 μM + LPS): 64%; TNF-alpha pg/mL ± SD ([1]; single substance 20 μM + LPS): 3400 ± 523 pg/mL; % inhibition (vs LPS) of CCL4 ([2]; single substance 20 μM + LPS): 62%; CCL4 pg/mL ± SD ([2]; single substance 20 μM + LPS): 67000 ± 7523 pg/mL; % inhibition (vs LPS) of IL-1beta ([3]; single substance 20 μM + LPS): 23%; IL-1beta pg/mL ± SD ([3]; single substance 20 μM + LPS): 4865 ± 1633 pg/mL |
